Test results from patent US5354748A, “Oral antibacterial compositions and method for the improvement of gastrointestinal absorption of penem or carbapenem antibiotics” (Suntory Limited, priority 1991, dated 1994).

How the values were obtained:
[1] = tested on: epithelial cells isolated from the small intestine of a rat; assay: Degradation of penem in epithelial cells isolated from rat small intestine (free acid of penem remaining by HPLC, with/without cilastatin); assay type: in vitro ADME; conditions: cilastatin 35 μg/ml; 37° C., 60 minutes
Description: Degradation of penems in epithelial cells isolated from the small intestine of a rat was investigated by the following method. Namely, the epithelial cells were isolated from the small intestine of the rat by the citric acid method reported in The Journal of Biological Chemistry, 248, […] (1973).
After the resultant solution was incubated at 37° C. for 60 minutes, the free acid of the penem was measured by high performance liquid chromatography (HPLC).

in vivo = assay: in vivo; parameters: species or system Sprague-Dawley male rats; conditions: rat, intravenous penem; at each cilastatin dosage
Description: The blood was collected during the period of from 0.1 to 1.5 hours after the administration. The concentrations of the free acid of the penem in plasma samples were measured by high performance liquid chromatography (HPLC) to determine the area under the plasma concentration:time curve (AUC).

With `CC1(C)C[C@@H]1C(=O)N/C(=C\CCCCSC[C@H](N)C(=O)O)C(=O)O` [cilastatin, reference compound] the “Degradation of the penem carboxylate by addition of cilastatin” value [1] was “inhibited” and the “Area under the plasma concentration:time curve upon intravenous administration, compared with single administration” value (in vivo) was “not different”.
